Reference: patent publication US8008306B2, “Quinoline compounds” (Kowa Company, Ltd., priority 2008, dated 2011)

Assays:
[1] = biological target: T1, LXRβ (versus LXRα) (Homo sapiens, UniProt P55055); settings: from Hu et al., Bioorg. Med. Chem. Lett., 18, pp. 54-59, 2008; cited from earlier work
T1 sequence (P55055 1-460): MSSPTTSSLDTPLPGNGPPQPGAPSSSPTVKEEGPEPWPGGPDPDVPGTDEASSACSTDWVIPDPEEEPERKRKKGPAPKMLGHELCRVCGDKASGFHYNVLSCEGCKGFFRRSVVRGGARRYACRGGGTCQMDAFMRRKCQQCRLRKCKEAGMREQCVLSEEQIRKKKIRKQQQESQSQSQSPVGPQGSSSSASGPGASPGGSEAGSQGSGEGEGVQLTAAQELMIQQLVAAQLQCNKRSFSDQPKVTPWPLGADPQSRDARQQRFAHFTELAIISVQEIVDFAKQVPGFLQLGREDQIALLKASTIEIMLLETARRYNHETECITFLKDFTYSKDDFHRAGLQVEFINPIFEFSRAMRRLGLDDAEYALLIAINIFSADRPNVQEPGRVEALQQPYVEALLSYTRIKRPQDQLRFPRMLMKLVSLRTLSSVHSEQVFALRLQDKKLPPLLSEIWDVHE

[2] = biological target: T2, LXRβ/GAL4 hybrid (LBD of human LXRβ), compared with LXRα/GAL4 (Homo sapiens, UniProt P55055); assay: Transactivation assay (GAL4-responsive luciferase reporter); type: cell-based; settings: CHOK-1 cells stably expressing LXRα/GAL4 or LXRβ/GAL4 and pG5luc; 0.01-10 μM, 24 hours; % eff relative to T0901317 at 10 μM = 100; data in FIGS. only
T2 construct: expressed in transfected cells; host or cells: CHOK-1 cells stably expressing the hybrid and pG5luc
T2 sequence (P55055 222-460 limits assumed): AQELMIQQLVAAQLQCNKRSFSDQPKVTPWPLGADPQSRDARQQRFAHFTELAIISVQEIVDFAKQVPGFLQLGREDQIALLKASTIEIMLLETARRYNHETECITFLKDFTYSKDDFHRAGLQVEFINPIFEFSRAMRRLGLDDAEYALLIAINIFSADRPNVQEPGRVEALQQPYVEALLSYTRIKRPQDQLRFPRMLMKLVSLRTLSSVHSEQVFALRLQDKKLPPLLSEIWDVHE
From the text: The ligand-binding domain (LBD) of a human LXRα and LXRβ cDNA was inserted adjacent to an yeast GAL4-transcription factor DNA-binding domain (DBD) of a mammal expression vector pBIND (Promega) to prepare an expression construct, thereby to produce pBIND-LXRα/GAL4 and pBIND-LXRβ/GAL4, respectively. PG5luc, a GAL4-responsive reporter construct, is a known vector that is available from Promega, and contains 5 copies of GAL4-response element located adjacent to the promoter as well as a luciferase reporter gene.
An LXRα/GAL4 or LXRβ/GAL4 hybrid and GAL4-responsive reporter vector pG5luc-stable-expression CHOK-1 cells were seeded under 5% CO2 wet atmosphere at 37° C., at 20,000 cells/well on a 96-well plate containing HAM-F12 medium containing 10% […] bovine fetal serum, 100 units/ml of penicillin G, and 100 μg/ml of streptomycin sulfate. […] By using Bright-Glo (Promega) as a luciferase assay substrate, and measuring the luminescence intensity with luminometer LB960 (Berthold Technologies), the effect of the test compound on the activation of luciferase transcription via the LXRα- or LXRβ-LBD was measured. At the same time, T0901317 (the compound of Example 12 of WO2000/54759) and WAY-254011 (compound 4 of Hu et al., Bioorg. Med. Chem. Lett., 18, pp. 54-59, 2008) were assessed as comparative compounds. […]

O=C(O)Cc1ccc(COc2cccc(-c3c(Cc4ccccc4)cnc4c(C(F)(F)F)cccc34)c2)cc1 [WAY-254011]
LXRβ-selective binding affinity (α/β ratio) [1]: 1 to 5
LXRβ-selective agonist effect (luciferase activity via LXRα- or LXRβ-LBD) [2]: not found to have an LXRβ-selective agonist effect
